Measurements as given in patent US5428059A, “Benzopyran derivatives and an anti-allergic agent possessing the same as the active ingredient” (Dainippon Ink & Chemicals, Inc., priority 1991, dated 1995).

Each molecule was assayed on Hartley-type male guinea pigs (assay: Guinea Pig Homogeneous Skin Passive Anaphylaxis Assay (PCA reaction)). Conditions: Cavia porcellus, 10 mg/kg oral, 48 h after sensitization, read-out: Allergic reaction inhibitory index (%).
Type: in vivo, guinea pig (Hartley-type)
How it was run: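 Inhibition % is derived from Evans Blue leakage area (mm^2, product of spot diameters) read 30 min after i.v. OVA/dye challenge. Beforehand, male Hartley guinea pigs (250~300 g) were passively sensitized intradermally with 120-fold-diluted anti-OVA serum and, after 48 h, received test compound 10 mg/kg p.o.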
Work on `COc1c(OC/C=C(\C)CCC=C(C)C)c2cccc(OC(C)C)c2oc1=O` [Compound 141, 3-(methoxy)-4-(geranyloxy)-8-(isopropoxy)-2H-1-benzopyran-2-one] yielded an inhibition in vivo at 10 mg/kg of 32%.
In the case of `CC(C)=CCC/C(C)=C/COc1c(OC/C=C(\C)CCC=C(C)C)c2cccc(OC(C)C)c2oc1=O` [Compound 142, 3,4-(digeranyloxy)-8-(isopropoxy)-2H-1-benzopyran-2-one], the inhibition in vivo at 10 mg/kg is reported as 31%.
With `CCCCCCCCCCOc1cccc2c(O)c(OC(=O)c3ccccc3)c(=O)oc12` [Compound 143, 3-(benzoyloxy)-4-hydroxy-8-(decyloxy)-2H-1-benzopyran-2-one] the inhibition in vivo at 10 mg/kg was 30%.
`CCCCCCCCCCOc1cccc2c(O)c(O)c(=O)oc12` [Compound 144, 3,4-(dihydroxy)-8-(decyloxy)-2H-1-benzopyran-2-one] gave an inhibition in vivo at 10 mg/kg of 34%.
With `CCCCCCCCCCOc1cccc2c(OC(C)=O)c(O)c(=O)oc12` [Compound 145, 3-hydroxy-4-(acetoxy)-8-(decyloxy)-2H-1-benzopyran-2-one] the inhibition in vivo at 10 mg/kg was 32%.
`CCCCCCCCCCOc1cccc2c(OC(=O)c3ccccc3)c(OC(C)=O)c(=O)oc12` [Compound 146, 3-(acetoxy)-4-(benzoyloxy)-8-(decyloxy)-2H-1-benzopyran-2-one] was tested, and the inhibition in vivo at 10 mg/kg was 30%.
`CCCCCCCCCCOc1cccc2c(O)c(OC(C)C)c(=O)oc12` [Compound 147, 3-(isopropoxy)-4-hydroxy-8-(decyloxy)-2H-1-benzopyran-2-one] showed an inhibition in vivo at 10 mg/kg of 30%.
Molecule `CCCCCCCCCCOc1cccc2c(OCCCC)c(O)c(=O)oc12` [Compound 148, 3-hydroxy-4-(butoxy)-8-(decyloxy)-2H-1-benzopyran-2-one] has an inhibition in vivo at 10 mg/kg of 31%.
In the case of `CCCCCCCCCCOc1cccc2c(OC(C)C)c(OC(C)=O)c(=O)oc12` [Compound 149, 3-(acetoxy)-4-(isopropoxy)-8-(decyloxy)-2H-1-benzopyran-2-one], the inhibition in vivo at 10 mg/kg is reported as 33%.
Work on `CCCCCCCCCCOc1cccc2c(OC(=O)c3ccccc3)c(OC)c(=O)oc12` [Compound 150, 3-(methoxy)-4-(benzoyloxy)-8-(decyloxy)-2H-1-benzopyran-2-one] yielded an inhibition in vivo at 10 mg/kg of 34%.
`CCCCCCCCCCOc1cccc2c(O)c(OC/C=C(\C)CCC=C(C)C)c(=O)oc12` [Compound 151, 3-(geranyloxy)-4-hydroxy-8-(decyloxy)-2H-1-benzopyran-2-one] was tested, and the inhibition in vivo at 10 mg/kg was 34%.
Molecule `CCCCCCCCCCOc1cccc2c(OC/C=C(\C)CCC=C(C)C)c(O)c(=O)oc12` [Compound 152, 3-hydroxy-4-(geranyloxy)-8-(decyloxy)-2H-1-benzopyran-2-one] has an inhibition in vivo at 10 mg/kg of 31%.
`CCCCCCCCCCOc1cccc2c(OC(C)=O)c(OC/C=C(\C)CCC=C(C)C)c(=O)oc12` [Compound 153, 3-(geranyloxy)-4-(acetoxy)-8-(decyloxy)-2H-1-benzopyran-2-one] gave an inhibition in vivo at 10 mg/kg of 30%.
Molecule `CCCCCCCCCCOc1cccc2c(OC/C=C(\C)CCC=C(C)C)c(OC(=O)c3ccccc3)c(=O)oc12` [Compound 154, 3-(benzoyloxy)-4-(geranyloxy)-8-(decyloxy)-2H-1-benzopyran-2-one] has an inhibition in vivo at 10 mg/kg of 31%.
Work on `CCCCCCCCCCOc1cccc2c(OC)c(OC/C=C(\C)CCC=C(C)C)c(=O)oc12` [Compound 155, 3-(geranyloxy)-4-(methoxy)-8-(decyloxy)-2H-1-benzopyran-2-one] yielded an inhibition in vivo at 10 mg/kg of 30%.
For `CCCCCCCCCCOc1cccc2c(OC/C=C(\C)CCC=C(C)C)c(OC(C)C)c(=O)oc12` [Compound 156, 3-(isopropoxy)-4-(geranyloxy)-8-(decyloxy)-2H-1-benzopyran-2-one], the inhibition in vivo at 10 mg/kg was 32%.
Work on `CCCCCCCCCCOc1cccc2c(OC/C=C(\C)CCC=C(C)C)c(OC/C=C(\C)CCC=C(C)C)c(=O)oc12` [Compound 157, 3,4-(digeranyloxy)-8-(decyloxy)-2H-1-benzopyran-2-one] yielded an inhibition in vivo at 10 mg/kg of 30%.
In the case of `CC(C)=CCC/C(C)=C/COc1cccc2c(O)c(OC(=O)c3ccccc3)c(=O)oc12` [Compound 158, 3-(benzoyloxy)-4-hydroxy-8-(geranyloxy)-2H-1-benzopyran-2-one], the inhibition in vivo at 10 mg/kg is reported as 30%.
`CC(C)=CCC/C(C)=C/COc1cccc2c(O)c(O)c(=O)oc12` [Compound 159, 3,4-(hydroxy)-8-(geranyloxy)-2H-1-benzopyran-2-one] gave an inhibition in vivo at 10 mg/kg of 36%.
`CC(=O)Oc1c(O)c(=O)oc2c(OC/C=C(\C)CCC=C(C)C)cccc12` [Compound 160, 3-hydroxy-4-(acetoxy)-8-(geranyloxy)-2H-1-benzopyran-2-one] showed an inhibition in vivo at 10 mg/kg of 34%.
Work on `CC(=O)Oc1c(OC(=O)c2ccccc2)c(=O)oc2c(OC/C=C(\C)CCC=C(C)C)cccc12` [Compound 161, 3-(benzoyloxy)-4-(acetoxy)-8-(geranyloxy)-2H-1-benzopyran-2-one] yielded an inhibition in vivo at 10 mg/kg of 31%.
`COc1c(O)c2cccc(OC/C=C(\C)CCC=C(C)C)c2oc1=O` [Compound 162, 3-(methoxy)-4-hydroxy-8-(geranyloxy)-2H-1-benzopyran-2-one] showed an inhibition in vivo at 10 mg/kg of 31%.
`CC(C)=CCC/C(C)=C/COc1cccc2c(OC(C)C)c(O)c(=O)oc12` [Compound 163, 3-hydroxy-4-(isopropoxy)-8-(geranyloxy)-2H-1-benzopyran-2-one] showed an inhibition in vivo at 10 mg/kg of 32%.
`CCCCCCCCCCOc1c(OC(C)C)c2cccc(OC/C=C(\C)CCC=C(C)C)c2oc1=O` [Compound 164, 3-(decyloxy)-4-(isopropoxy)-8-(geranyloxy)-2H-1-benzopyran-2-one] was tested, and the inhibition in vivo at 10 mg/kg was 33%.
In the case of `CC(C)=CCC/C(C)=C/COc1cccc2c(OC(C)C)c(OC(=O)c3ccccc3)c(=O)oc12` [Compound 165, 3-(benzoyloxy)-4-(isopropoxy)-8-(geranyloxy)-2H-1-benzopyran-2-one], the inhibition in vivo at 10 mg/kg is reported as 30%.
With `COc1c(OC(C)=O)c2cccc(OC/C=C(\C)CCC=C(C)C)c2oc1=O` [Compound 166, 3-(methoxy)-4-(acetoxy)-8-(geranyloxy)-2H-1-benzopyran-2-one] the inhibition in vivo at 10 mg/kg was 30%.
Molecule `CC(C)=CCC/C(C)=C/COc1c(O)c2cccc(OC/C=C(\C)CCC=C(C)C)c2oc1=O` [Compound 167, 3,8-(digeranyloxy)-4-hydroxy-2H-1-benzopyran-2-one] has an inhibition in vivo at 10 mg/kg of 30%.
Work on `CC(C)=CCC/C(C)=C/COc1c(O)c(=O)oc2c(OC/C=C(\C)CCC=C(C)C)cccc12` [Compound 168, 3-hydroxy-4,8-(digeranyloxy)-2H-1-benzopyran-2-one] yielded an inhibition in vivo at 10 mg/kg of 34%.
`CC(=O)Oc1c(OC/C=C(\C)CCC=C(C)C)c(=O)oc2c(OC/C=C(\C)CCC=C(C)C)cccc12` [Compound 169, 3,8-(digeranyloxy)-4-(acetoxy)-2H-1-benzopyran-2-one] gave an inhibition in vivo at 10 mg/kg of 30%.
Work on `CC(C)=CCC/C(C)=C/COc1c(OC(=O)c2ccccc2)c(=O)oc2c(OC/C=C(\C)CCC=C(C)C)cccc12` [Compound 170, 3-(benzoyloxy)-4,8-(digeranyloxy)-2H-1-benzopyran-2-one] yielded an inhibition in vivo at 10 mg/kg of 31%.
With `COc1c(OC/C=C(\C)CCC=C(C)C)c(=O)oc2c(OC/C=C(\C)CCC=C(C)C)cccc12` [Compound 171, 3,8-(digeranyloxy)-4-(methoxy)-2H-1-benzopyran-2-one] the inhibition in vivo at 10 mg/kg was 33%.
`CC(C)=CCC/C(C)=C/COc1c(OC(C)C)c(=O)oc2c(OC/C=C(\C)CCC=C(C)C)cccc12` [Compound 172, 3-(isopropoxy)-4,8-(digeranyloxy)-2H-1-benzopyran-2-one] was tested, and the inhibition in vivo at 10 mg/kg was 30%.
`O=C(Oc1c(O)c2c(O)cccc2oc1=O)c1ccccc1` [Compound 176, 3-(benzoyloxy)-4,5-dihydroxy-2H-1-benzopyran-2-one] gave an inhibition in vivo at 10 mg/kg of 34%.
In the case of `O=c1oc2cccc(O)c2c(O)c1O` [Compound 177, 3,4,5-trihydroxy-2H-1-benzopyran-2-one], the inhibition in vivo at 10 mg/kg is reported as 37%.
`CC(=O)Oc1c(O)c(=O)oc2cccc(O)c12` [Compound 178, 3,5-(dihydroxy)-4-(acetoxy)-2H-1-benzopyran-2-one] gave an inhibition in vivo at 10 mg/kg of 30%.
With `CC(=O)Oc1c(OC(C)=O)c2c(OC(C)=O)cccc2oc1=O` [Compound 179, 3,4,5-(triacetoxy)-2H-1-benzopyran-2-one] the inhibition in vivo at 10 mg/kg was 32%.
In the case of `CC(=O)Oc1c(OC(=O)c2ccccc2)c(=O)oc2cccc(O)c12` [Compound 180, 3-(benzoyloxy)-4-(acetoxy)-5-hydroxy-2H-1-benzopyran-2-one], the inhibition in vivo at 10 mg/kg is reported as 30%.
With `CC(=O)Oc1cccc2oc(=O)c(OC(=O)c3ccccc3)c(OC(C)=O)c12` [Compound 181, 3-(benzoyloxy)-4,5-(diacetoxy)-2H-1-benzopyran-2-one] the inhibition in vivo at 10 mg/kg was 33%.
`CC(C)Oc1c(O)c2c(O)cccc2oc1=O` [Compound 182, 3-(isopropoxy)-4,5-(dihydroxy)-2H-1-benzopyran-2-one] showed an inhibition in vivo at 10 mg/kg of 31%.
With `CCCCCCCCCCOc1c(O)c(=O)oc2cccc(O)c12` [Compound 183, 3,5-(dihydroxy)-4-(decyloxy)-2H-1-benzopyran-2-one] the inhibition in vivo at 10 mg/kg was 30%.
Work on `CCCCCCCCCCOc1c(OC)c(=O)oc2cccc(O)c12` [Compound 184, 3-(methoxy)-4-(decyloxy)-5-hydroxy-2H-1-benzopyran-2-one] yielded an inhibition in vivo at 10 mg/kg of 33%.
`CC(=O)Oc1c(OC(C)C)c2c(O)cccc2oc1=O` [Compound 185, 3-(acetoxy)-4-(isopropoxy)-5-hydroxy-2H-1-benzopyran-2-one] gave an inhibition in vivo at 10 mg/kg of 30%.
Work on `CCCCCCCCCCOc1c(OC(=O)c2ccccc2)c2c(O)cccc2oc1=O` [Compound 186, 3-(decyloxy)-4-(benzoyloxy)-5-hydroxy-2H-1-benzopyran-2-one] yielded an inhibition in vivo at 10 mg/kg of 32%.
`CC(C)=CCC/C(C)=C/COc1c(O)c2c(O)cccc2oc1=O` [Compound 187, 3-(geranyloxy)-4,5-(dihydroxy)-2H-1-benzopyran-2-one] showed an inhibition in vivo at 10 mg/kg of 30%.
`CC(C)=CCC/C(C)=C/COc1c(O)c(=O)oc2cccc(O)c12` [Compound 188, 3,5-(dihydroxy)-4-(geranyloxy)-2H-1-benzopyran-2-one] gave an inhibition in vivo at 10 mg/kg of 32%.
